Reference: patent EP1019422B1, “PHOSPHINE-SUBSTITUTED COBALTICINIUM SALTS, PRODUCTION THEREOF, AND USE OF THE SAME AS CONSTITUENTS OF CATALYSTS” (Celanese Chemicals Europe GmbH, priority 1997, dated 1999)

Assay: Solubility properties of the compounds (Table 1)
Assay type: physicochemical
Settings: for Löslichkeitseigenschaften: qualitative, solvents named in the cell
Source text: In Tabelle 1 sind die erfindungsgemäßen Verbindungen bezüglich ihrer Farbe/Konsistenz und bezüglich ihrer Löslichkeitseigenschaften zusammengestellt.

Row | Compound | Löslichkeitseigenschaften | Löslichkeit in Wasser (water, in contrast to the other compounds of formula I and the known hexafluorophosphate)
1 | 1,1'-Bis(diphenylphosphino)cobalticinium Tetrafluoroborat [Beispiel 1] | löslich in Methylenchlorid, Nitro-methan, Methanol und Aceton | 
2 | C1=CC(P(c2ccccc2)c2ccccc2)C=C1.[Co+2].[F][Sb-]([F])([F])([F])([F])[F].c1ccc(P(c2ccccc2)[c-]2cccc2)cc1 [Beispiel 2, 1,1'-Bis(diphenylphosphino)cobalticinium Hexafluoroantimonat] | löslich in Methylenchlorid, Nitromethan, Methan und Aceton | 
3 | 1,1'-Bis(diphenylphosphinoindenyl)-cobalticinium-Tetrafluoroborat [Beispiel 8] | löslich in Methylenchlorid | 
4 | C1=CC(P(c2ccccc2)c2ccccc2)C=C1.[Co+2].c1ccc(P(c2ccccc2)[c-]2cccc2)cc1.c1ccc([B-](c2ccccc2)(c2ccccc2)c2ccccc2)cc1 [Beispiel 7, 1,1'-Bis(diphenylphosphino)cobalticinium Tetraphenylborat] | löslich in Methylenchlorid | 
5 | C1=CC(P(c2ccccc2)c2ccccc2)C=C1.O=S(=O)([O-])C(F)(F)F.[Co+2].c1ccc(P(c2ccccc2)[c-]2cccc2)cc1 [Beispiel 5, 1,1'-Bis(diphenylphosphino)cobalticinium Triflat] | löslich in Methylenchlorid, Aceton, Nitromethan, Methanol | 
6 | C1=CC(P(c2ccccc2)c2ccccc2)C=C1.O=[N+]([O-])[O-].[Co+2].c1ccc(P(c2ccccc2)[c-]2cccc2)cc1 [Beispiel 3, 1,1'-Bis (diphenylphosphino)cobalticinium Nitrat] | löslich in warmem Wasser | gute Löslichkeit in Wasser
7 | 1,1'-Bis(diphenylphosphino)cobalticinium Trifluoracetat [Beispiel 6] | löslich in Methylenchlorid, Aceton, Methanol, Nitromethan | 
8 | 1,1'-Bis(diphenylphosphino)cobalticinium Tosylat [Beispiel 4] | löslich in Methylenchlorid, Methanol, Aceton, Nitromethan | 
